Ki, Protection and solubility data for 14 compounds are collected here from ChEMBL document CHEMBL1137896, “Synthesis and AMPA receptor antagonistic activity of a novel 7-imidazolyl-6-trifluoromethyl quinoxalinecarboxylic acid with a substituted phenyl group and improved its good physicochemical properties by introduced CF3 group” (Bioorg Med Chem Lett, 2004).

Data set [1] concerns the target Glutamate receptor ionotropic, AMPA (Rattus norvegicus, UniProt P19490+P19491+P19492+P19493). As to the kind of experiment: Displacement of [3H]AMPA (5 nM) from ionotropic glutamate receptor AMPA of rat cerebral cortex synaptic membrane preparation. In kind it is tissue-based. (In general: Loss of bound radioactivity is the signal in a displacement assay; it reports binding, not function.)

Data set [2] deals with Rattus norvegicus. In words: In vivo protective effect in focal ischemia rat model was determined after intravenous dosage at 15 mg/kg/h for 4 hr. The format is functional.
Data set [3] in a line: Solubility at pH 7.4. The format is physicochemical. The note with it: buffer.
Data set [4] concerns Rattus norvegicus. In words: In vivo protective effect in focal ischemia rat model was determined after intravenous dosage at 2.5 mg/kg/h for 4 hr. The format is functional.
Data set [5] deals with Rattus norvegicus. In words: In vivo protective effect in focal ischemia rat model was determined after intravenous dosage at 30 mg/kg/h for 4 hr. In kind it is functional.

In brackets after ≈: the same amount, converted by molar mass. Some results are limits rather than exact numbers.

For orientation: Ki means the dissociation constant of the complex between target and ligand, obtained from inhibition or displacement. A higher Ki goes with lower affinity. `Cc1ccc(NC(=O)OCc2cn(-c3cc4nc(C(=O)O)c(O)nc4cc3C(F)(F)F)cn2)cc1` showed a Ki in data set [1] of 0.02 µM.

`O=C(NCc1ccccc1)OCc1cn(-c2cc3nc(C(=O)O)c(O)nc3cc2C(F)(F)F)cn1` yielded a Ki in data set [1] of 0.19 µM.

In data set [1], `O=C(Nc1ccc(C(F)(F)F)cc1)OCc1cn(-c2cc3nc(C(=O)O)c(O)nc3cc2C(F)(F)F)cn1` showed an inhibition constant (Ki) of 0.029 µM.

In turn, `O=C(Nc1cccc(Br)c1)OCc1cn(-c2cc3nc(C(=O)O)c(O)nc3cc2C(F)(F)F)cn1` returned a Ki in data set [1] of 0.0052 µM.

For orientation: solubility means how much of the substance goes into solution per volume. Regarding `O=c1[nH]c2cc(-n3ccnc3)c([N+](=O)[O-])cc2[nH]c1=O` [YM-90K], the Protection in the data set on Rattus norvegicus [2] worked out at 2.8. The compound also returned a solubility in data set [3] of 1000 µg/mL (≈ 3.66 mM).

In the data set with Rattus norvegicus [4], `O=C(Nc1ccc(C(=O)O)cc1)OCc1cn(-c2cc3nc(C(=O)O)c(O)nc3cc2C(F)(F)F)cn1` came in with a Protection of 2.7. The Ki in data set [1] was found to be 0.016 µM. The solubility in data set [3] was found to be 8290 µg/mL (≈ 16 mM).

The compound `O=C(Nc1ccc(Br)cc1)OCc1cn(-c2cc3nc(C(=O)O)c(O)nc3cc2C(F)(F)F)cn1` showed a Ki in data set [1] of 0.02 µM.

As to `O=C(Nc1ccc(C(=O)O)cc1)OCc1cn(-c2cc3nc(C(=O)O)c(O)nc3cc2[N+](=O)[O-])cn1`, the Protection with Rattus norvegicus [4] is 3. This compound came in with a solubility in data set [3] of 4860 µg/mL (≈ 9.83 mM).

The compound `COc1ccc(NC(=O)OCc2cn(-c3cc4nc(C(=O)O)c(O)nc4cc3C(F)(F)F)cn2)cc1` registered a Ki in data set [1] of 0.03 µM.

Turning to `O=C(O)c1nc2cc(-n3ccnc3)c(C(F)(F)F)cc2nc1O`, the Ki in data set [1] amounted to 0.086 µM.

`O=C(Nc1cc(Cl)cc(Cl)c1)OCc1cn(-c2cc3nc(C(=O)O)c(O)nc3cc2C(F)(F)F)cn1` displayed a Ki in data set [1] of 0.013 µM.

As for `O=C(O)Cn1c(=O)c(=O)[nH]c2cc([N+](=O)[O-])c(-n3ccnc3)cc21` [ZONAMPANEL], the solubility in data set [3] is more than 5000 µg/mL. Besides, in the data set on Rattus norvegicus [5], the Protection is given as 0.5.

`O=C(Nc1ccccc1)OCc1cn(-c2cc3nc(C(=O)O)c(O)nc3cc2C(F)(F)F)cn1` displayed a Ki in data set [1] of 0.023 µM.

In turn, `O=C(Nc1cccc(C(=O)O)c1)OCc1cn(-c2cc3nc(C(=O)O)c(=O)[nH]c3cc2C(F)(F)F)cn1` registered an inhibitory constant (Ki) in data set [1] of 0.035 µM.
